Test results: US8492377B2, “MTKI quinazoline derivatives” (Janssen Pharmaceutica NV, priority 2006, dated 2013)
Structures can show the parent of a compound that is named as a salt.

Assays:
human Fyn = human Fyn (Homo sapiens, UniProt P06241); assay: C2: Fyn kinase assay; format: biochemical; conditions: 5 ng human Fyn, 1.0 μM unlabeled ATP, poly(Glu,Tyr) 4:1, 25° C., 10 minutes; read-out: C2: Fyn kinase pIC50 (converted)
Protocol: In this assay the Fyn kinase reaction is performed at 25° C. for 10 minutes in a 96-well microtiterplate. The 25 μl reaction volume contains 8 mM MOPS pH 7.0, 20 mM Mg-acetate, 0.2 mM Na2EDTA, 0.5 mM MnCl2, 1.0 μM unlabeled ATP, 0.2 μCi AT^33P, 20 ng poly(Glu,Tyr) 4:1 and 5 ng human Fyn.
(§1) The reaction is stopped by adding 5 μl of a 3% phosphoric acid solution. 5 μl of the reaction mixture is then spotted onto a Filtermat A filter (Wallac) and washed 3 times for 5 min. in 75 mM phosphoric acid and 1 time for 5 min. in methanol prior to drying and scintillation counting.

human Src = human Src (Homo sapiens, UniProt P12931); assay: C1: c-Src filter assay; format: biochemical; conditions: 5 ng human Src, 1.0 μM unlabeled ATP, poly(Glu,Tyr) 4:1, 25° C., 10 minutes; read-out: C1: c-SRC filter pIC50 (converted)
Protocol: The in vitro inhibition of c-Src kinase was assessed using the glass-fiber filter technology as described by Davies, S. P. et al., Biochem J. (2000), 351; p. 95-105.
In the glass-fiber filter technology the activity of the kinase is measured using an appropriate substrate that is incubated with the aforementioned kinase protein in the presence of (^33P) radiolabeled ATP. (^33P) Phosporylation of the substrate is subsequently measured as radioactivity bound on a glassfiber-filter.
In an alternative filter based assay the final kinase activity was assessed using a phosphostorage screen instead of scintilation counting.
In this assay the Src kinase reaction is performed at 25° C. for 10 minutes in a 96-well microtiterplate. The 25 μl reaction volume contains 8 mM MOPS pH 7.0, 20 mM Mg-acetate, 0.2 mM Na2EDTA, 0.5 mM MnCl2, 1.0 μM unlabeled ATP, 0.2 μCi AT^33P, 20 ng poly(Glu,Tyr) 4:1 and 5 ng human Src.
as §1, with “quantification on the Typhoon (Amersham) using a phosphostorage screen.” for “scintillation counting.”

human Fyn, sequence (P06241 whole entry): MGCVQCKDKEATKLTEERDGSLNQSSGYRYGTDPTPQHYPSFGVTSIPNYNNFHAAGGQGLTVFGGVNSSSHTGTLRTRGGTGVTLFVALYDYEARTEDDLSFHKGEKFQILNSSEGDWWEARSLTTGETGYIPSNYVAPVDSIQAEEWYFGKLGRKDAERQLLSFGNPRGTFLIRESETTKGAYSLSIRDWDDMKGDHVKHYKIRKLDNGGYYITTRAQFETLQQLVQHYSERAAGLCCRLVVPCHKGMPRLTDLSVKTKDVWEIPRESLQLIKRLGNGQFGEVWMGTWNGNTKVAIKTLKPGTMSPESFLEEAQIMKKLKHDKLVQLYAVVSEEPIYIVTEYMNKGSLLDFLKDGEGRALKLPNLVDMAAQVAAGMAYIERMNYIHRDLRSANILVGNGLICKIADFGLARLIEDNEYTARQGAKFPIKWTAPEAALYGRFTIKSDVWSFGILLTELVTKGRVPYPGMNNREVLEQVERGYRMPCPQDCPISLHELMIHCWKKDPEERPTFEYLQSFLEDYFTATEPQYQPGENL
human Src, sequence (P12931 whole entry): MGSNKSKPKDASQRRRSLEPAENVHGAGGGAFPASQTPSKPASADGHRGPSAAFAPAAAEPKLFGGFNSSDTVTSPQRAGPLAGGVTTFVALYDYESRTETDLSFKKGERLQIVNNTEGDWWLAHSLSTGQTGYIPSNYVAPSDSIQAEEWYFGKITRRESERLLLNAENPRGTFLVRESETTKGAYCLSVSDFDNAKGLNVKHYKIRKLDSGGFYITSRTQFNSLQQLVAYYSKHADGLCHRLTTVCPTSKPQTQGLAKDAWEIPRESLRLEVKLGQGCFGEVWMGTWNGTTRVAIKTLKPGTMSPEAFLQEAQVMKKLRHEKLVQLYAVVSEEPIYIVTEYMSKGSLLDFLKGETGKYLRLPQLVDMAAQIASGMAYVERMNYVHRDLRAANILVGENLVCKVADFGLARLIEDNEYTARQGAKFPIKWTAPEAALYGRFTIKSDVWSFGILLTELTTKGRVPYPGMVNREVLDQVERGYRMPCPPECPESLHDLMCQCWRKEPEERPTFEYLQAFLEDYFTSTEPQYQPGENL

Row | SMILES | melting point | IC50 (human Fyn) | IC50 (human Src)
1 | Brc1cc2c(c3c1OCO3)Nc1ncnc3cc(OCCCN4CCCC4)c(cc13)OCCCCCNC2 (as salt: HCl) [Compound B27] | 224 °C |  | 
2 | CN1CCN(CCCOc2cc3ncnc4c3cc2OCCCCCNCc2cc(Br)c3c(c2N4)OCO3)CC1 (as salt: HCl) [Compound B28] | 244 °C |  | 
3 | CN1CCCCCOc2cc3c(ncnc3cc2OCCCNC(=O)OC(C)(C)C)Nc2c(ccc3c2OCO3)C1 [Compound A56] | 210 to 213 °C | < 1000 nM | > 10000 nM
4 | CN1CCCCCOc2cc3c(ncnc3cc2OCCCN2CCN(CCO)CC2)Nc2c(ccc3c2OCO3)C1 [Compound B13] |  | 3.63 nM | 295 nM
5 | CN(CCO)CCCOc1cc2ncnc3c2cc1OCCCCCN(C)Cc1ccc2c(c1N3)OCO2 [Compound B15] |  | 0.174 nM | 562 nM
6 | CN1CCCCCOc2cc3c(ncnc3cc2OCCCNC(=O)CCS(C)(=O)=O)Nc2c(ccc3c2OCO3)C1 [Compound B16] |  | < 1000 nM | 2290 nM
7 | COc1cc2ncnc3c2cc1OCCCCCNCc1cc(Oc2ccc(C)nc2)c2c(c1N3)OCO2 [Compound B17] |  | 40.7 nM | > 10000 nM
8 | CN1CCCCCOc2cc3c(ncnc3cc2OCCCN2CCOCC2)Nc2c(ccc3c2OCO3)C1 [Compound B18] |  | < 1 nM | 468 nM
9 | CN1CCCCCOc2cc3c(ncnc3cc2OCCCN2CCCCC2)Nc2c(ccc3c2OCO3)C1 [Compound B19] |  | 1.23 nM | 617 nM
10 | CN1CCCCCOc2cc3c(ncnc3cc2OCCCN2CCCC2)Nc2c(ccc3c2OCO3)C1 [Compound B21] |  | 0.0575 nM | 575 nM
11 | CN1CCC(COc2cc3ncnc4c3cc2OCCCCCN(C)Cc2ccc3c(c2N4)OCO3)CC1 [Compound B22] |  | > 1000 nM | 1290 nM
12 | CN1CCCCCOc2cc3c(ncnc3cc2OCCCN2CCS(=O)(=O)CC2)Nc2c(ccc3c2OCO3)C1 [Compound B23] |  | < 1000 nM | 708 nM
13 | CN1CCCCCOc2cc3c(ncnc3cc2OC[C@@H](O)CN2CCS(=O)(=O)CC2)Nc2c(ccc3c2OCO3)C1 [Compound B24] |  | < 1000 nM | 676 nM
14 | CN1CCCCCOc2cc3c(ncnc3cc2OC[C@H](O)CN2CCS(=O)(=O)CC2)Nc2c(ccc3c2OCO3)C1 [Compound B25] |  | 5.25 nM | 1410 nM
15 | COCCOCCOc1cc2ncnc3c2cc1OCCCCCN(C)Cc1ccc2c(c1N3)OCO2 [Compound B31] |  | < 1 nM | 2630 nM
16 | CN1CCNCCCOc2cc3c(ncnc3cc2OCCCN2CCOCC2)Nc2c(ccc3c2OCO3)C1 [Compound B34] |  | < 1000 nM | 427 nM
17 | COCCNCCCOc1cc2ncnc3c2cc1OCCCNCCN(C)Cc1ccc2c(c1N3)OCO2 [Compound B35] |  | 29.5 nM | 631 nM
18 | COc1cc2ncnc3c2cc1OCCCCCN(C)Cc1cc(Br)c2c(c1N3)OCO2 [Compound B43] |  | 19.5 nM | > 10000 nM
19 | COc1cc2c3c(ncnc3c1)Nc1c(ccc3c1OCO3)CNCCCCCO2 [Compound B47] | 250 °C | 120 nM | 
20 | CN1CCCCCOc2cc3c(ncnc3cc2OCCC2CCN(C(=O)CCS(C)(=O)=O)CC2)Nc2c(ccc3c2OCO3)C1 [Compound B65] |  | 5.75 nM | 1820 nM
21 | CN1CCCCCOc2cc3c(ncnc3cc2OCCCNCCS(C)(=O)=O)Nc2c(ccc3c2OCO3)C1 [Compound B68] |  | < 1000 nM | 692 nM
22 | CN1CCCCCOc2cc3c(ncnc3cc2OCCCNCCO)Nc2c(ccc3c2OCO3)C1 [Compound B69] |  | 6.17 nM | 479 nM
23 | COCCNCCCOc1cc2ncnc3c2cc1OCCCCCN(C)Cc1ccc2c(c1N3)OCO2 [Compound B70] |  | 5.01 nM | 776 nM
24 | CN1CCCCCOc2cc3c(ncnc3cc2OCCCNCCO)Nc2c(cc(Br)c3c2OCO3)C1 [Compound B71] | 241 °C |  | 
